Test results reported in patent US9862726B2, “Opioid receptor modulating oxabicyclo[2.2.2]octane morphinans” (PURDUE PHARMA L.P., priority 2013, dated 2018).
Read-outs that look alike come from different tables or passages of the source.

Assays:
μ-opioid receptor [1] = molecular target: T1, μ-opioid receptor (Homo sapiens (Human), UniProt P35372); assay: μ-opioid receptor radioligand dose-displacement binding assay (HEK-293 cells)
Experimental: Radioligand dose-displacement binding assays for μ-opioid receptors used 0.3 nM [^3H]-diprenorphine (Perkin Elmer, Shelton, Conn.), with […] membrane protein/well in a final volume of 500 μl binding buffer (10 mM MgCl2, 1 mM EDTA, 5% DMSO, 50 mM HEPES, pH 7.4). Reactions were carried out in the absence or presence of increasing concentrations of unlabeled naloxone. All reactions were conducted in 96-deep well polypropylene plates for 2 hours at room temperature. Binding reactions were terminated by rapid filtration onto 96-well Unifilter GF/C filter plates (Perkin Elmer, Shelton, Conn.), presoaked in 0.5% polyethylenimine using a 96-well tissue harvester (Perkin Elmer, Shelton, Conn.) followed by performing three filtration washes with 500 μl of ice-cold binding buffer. Filter plates were subsequently dried at 50° C. for 2-3 hours. BetaScint scintillation cocktail (Perkin Elmer, Shelton, Conn.) was added (50 μl/well), and plates were counted using a Packard Top-Count for 1 min/well. The data were analyzed using the one-site competition curve fitting functions in GraphPad PRISM™ v. 3.0 or higher (San Diego, Calif.), or an in-house function for one-site competition curve-fitting.
(§1) In TABLE 3, binding affinity of certain Compounds of the Invention to the μ- and κ-opioid receptors was determined as described above using HEK-293 cells.

[2] = molecular target: recombinant human kappa opioid receptor (κ) (Homo sapiens (Human), UniProt P41145); assay: κ-opioid receptor radioligand dose-displacement binding assay (HEK-293 cells)
Experimental: Membranes from HEK-293 cells, CHO cells or U-2 OS cells expressing the recombinant human kappa opioid receptor (κ) were prepared by lysing cells in ice cold hypotonic buffer (2.5 mM MgCl2, 50 mM HEPES, pH 7.4) (10 mL/10 cm dish) followed by homogenization with a tissue grinder/Teflon pestle. Membranes from a cell line naturally expressing kappa opioid receptor can also be used. Membranes were collected by centrifugation at 30,000×g for 15 min at 4° C. and pellets were resuspended in hypotonic buffer to a final concentration of 1-3 mg/mL. Protein concentrations were determined using the BioRad protein assay reagent with bovine serum albumen as standard. Aliquots of κ receptor membranes were stored at −80° C.
Radioligand dose displacement assays used 0.4 nM [^3H]-U69,593 (GE Healthcare, Piscataway, N.J.; 40 Ci/mmole) with 15 μg membrane protein (recombinant κ opioid receptor expressed in HEK 293 cells; in-house prep) in a final volume of 200 μl binding buffer (5% DMSO, 50 mM Trizma base, pH 7.4). Non-specific binding was determined in the presence of 10 μM unlabeled naloxone or U69,593. All reactions were performed in 96-well polypropylene plates for 1 hour at a temperature of about 25° C. Binding reactions were terminated by rapid filtration onto 96-well Unifilter GF/C filter plates (Perkin Elmer, Shelton, Conn.) presoaked in 0.5% polyethylenimine (Sigma). Harvesting was performed using a 96-well tissue harvester (Perkin Elmer, Shelton, Conn.) followed by five filtration washes with 200 μl ice-cold binding buffer. Filter plates were subsequently dried at 50° C. for 1-2 hours. Fifty μl/well scintillation cocktail (Perkin Elmer, Shelton, Conn.) was added and plates were counted in a Packard Top-Count for 1 min/well.
as §1

μ-opioid receptor [3] = molecular target: T1, μ-opioid receptor; assay: μ-opioid receptor [35S]GTPγS functional assay (HEK-293 cells); assay type: biochemical
Experimental: (§2) [^35S]GTPγS functional assays were conducted using freshly thawed μ-receptor membranes prepared in-house from a cell line expressing recombinant μ opioid receptor in a HEK-293, CHO or U-2 OS cell background, or purchased from a commercial source (Perkin Elmer, Shelton, Conn.; or DiscovRx, Fremont, Calif.). Assay reactions were prepared by sequentially adding the following reagents to binding buffer (100 mM NaCl, 10 mM MgCl2, 20 mM HEPES, pH 7.4) on ice (final concentrations indicated): membrane protein (0.026 mg/mL), saponin ([…]), GDP ([…]) and [^35S]GTPγS (0.20 nM; Perkin Elmer, Shelton, Conn.). The prepared membrane solution (190 μl/well) was transferred to 96-shallow well polypropylene plates containing 10 μl of 20× concentrated stock solutions of the agonist [D-Ala^2, N-methyl-Phe^4 Gly-ol^5]-enkephalin (DAMGO) prepared in dimethyl sulfoxide (DMSO). Plates were incubated for 30 min at about 25° C. with shaking. Reactions were terminated by rapid filtration onto 96-well Unifilter GF/B filter plates (Perkin Elmer, Shelton, Conn.) using a 96-well tissue harvester (Perkin Elmer, Shelton, Conn.) followed by three filtration washes with 200 μl of ice-cold wash buffer (10 mM NaH2PO4, 10 mM Na2HPO4, pH 7.4). Filter plates were subsequently dried at 50° C. for 2-3 hours. BetaScint scintillation cocktail (Perkin Elmer, Shelton, Conn.) was added (50 μl/well) and plates were counted using a Packard Top-Count for 1 min/well. Data were analyzed using the sigmoidal dose-response curve fitting functions in GraphPad PRISM v. 3.0, or an in-house function for non-linear, sigmoidal dose-response curve-fitting. [^35S]GTPγS functional assays can also be conducted using freshly thawed μ-receptor membranes prepared from a cell line expressing recombinant μ opioid receptor in a CHO-K1 cell background.
(§3) μ GTP EC50 is the concentration of a compound providing 50% of the maximal response for the compound at a μ-opioid receptor.
(§4) μ GTP Emax (%) is the maximal effect elicited by a compound relative to the effect elicited by DAMGO, a standard μ agonist.
In TABLE 4, activity response of certain Compounds of the Invention to the μ- and κ-opioid receptors was determined as described above for functional assays using HEK-293 cells.

μ-opioid receptor [4] = molecular target: T1, μ-opioid receptor; assay: μ-opioid receptor functional assay (U-2 OS cells); assay type: biochemical
Experimental: as §2, §3, §4

κ-opioid receptor = κ-opioid receptor (Homo sapiens (Human), UniProt P41145); assay: κ-opioid receptor functional assay (U-2 OS cells); assay type: biochemical
Experimental: Functional [^35S]GTPγS binding assays were conducted as follows. κ opioid receptor membrane solution was prepared by sequentially adding final concentrations of 0.026 μg/μl κ membrane protein (in-house), 10 μg/mL saponin, 3 μM GDP and 0.20 nM [^35S]GTPγS to binding buffer (100 mM NaCl, 10 mM MgCl2, 20 mM HEPES, pH 7.4) on ice. The prepared membrane solution (190 μl/well) was transferred to 96-shallow well polypropylene plates containing 10 μl of 20× concentrated stock solutions of agonist prepared in DMSO. Plates were incubated for 30 min at a temperature of about 25° C. with shaking. Reactions were terminated by rapid filtration onto 96-well Unifilter GF/B filter plates (Perkin Elmer, Shelton, Conn.) using a 96-well tissue harvester (Packard) and followed by three filtration washes with 200 μl ice-cold binding buffer (10 mM NaH2PO4, 10 mM Na2HPO4, pH 7.4). Filter plates were subsequently dried at 50° C. for 2-3 hours. Fifty μl/well scintillation cocktail (Perkin Elmer, Shelton, Conn.) was added and plates were counted in a Packard Top-Count for 1 min/well.
κ GTP EC50 is the concentration of a compound providing 50% of the maximal response for the compound at a κ receptor.
κ GTP Emax (%) is the maximal effect elicited by a compound relative to the effect elicited by U69,593.
The following TABLE 5 provides results on the activity response of certain Compounds of the Invention at the μ- and κ-opioid receptors determined as described above using U-2 OS cells.

[5] = HEK-293 cells, relative to DAMGO
[6] = U-2 OS cells, read-out: Opioid Receptor μ EC50
[7] = U-2 OS cells, relative to DAMGO
[8] = U-2 OS cells, read-out: Opioid Receptor κ EC50
[9] = U-2 OS cells, relative to U69,593

Compound	Ki (μ-opioid receptor [1]) [nM]	Ki [2] [nM]	EC50 (μ-opioid receptor [3]; HEK-293 cells, read-out: Opioid Receptor μ EC50) [µM]	Opioid Receptor μ Emax (%) (μ-opioid receptor [3]; [5])	EC50 (μ-opioid receptor [4]; [6]) [nM]	Opioid Receptor μ Emax (%) (μ-opioid receptor [4]; [7])	EC50 (κ-opioid receptor; [8]) [nM]	Opioid Receptor κ Emax (%) (κ-opioid receptor; [9])	EC50 (μ-opioid receptor [3]; HEK-293 cells, bound given in μM, read-out: Opioid Receptor μ EC50) [µM]	Emax (μ-opioid receptor [3]; [5]) [%]	Emax (μ-opioid receptor [4]; [7]) [%]	Emax (κ-opioid receptor; [9]) [%]	EC50 (μ-opioid receptor [3]) [µM]	EC50 (μ-opioid receptor [4]) [nM]	EC50 (κ-opioid receptor) [nM]
1-Chlorophenyl-3-((4bR,6S,8aS,9R)-11-(cyclopropylmethyl)-3-methoxy-5,6,7,8,9,10-hexahydro-9,4b-(epiminoethano)-8a,6-(epoxymethano)phenanthren-6-yl)urea [Compound 25]	3.51 ± 0.45	2.56 ± 0.36	0.0866 ± 0.0115	18.3 ± 0.88	4.33 ± 0.15	99.7 ± 0.88	16.1 ± 0.82	121.3 ± 4.67							
COc1ccc2c(c1)[C@]13CCN(CC4CC4)[C@H](C2)[C@]12CC[C@@](N(Cc1ccccc1)Cc1ccccc1)(CO2)C3 [Compound 7, (4bR,6S,8aS,9R)—N,N-dibenzyl-11-(cyclopropylmethyl)-3-methoxy-5,6,7,8,9,10-hexahydro-9,4b-(epiminoethano)-8a,6-(epoxymethano)phenanthren-6-amine]	64.3 ± 21.6	5.35 ± 0.91			26.4 ± 3.96		2.99 ± 0.33		> 20	5.67 ± 1.86	84.3 ± 2.85	112 ± 3.93			
COc1ccc2c(c1)[C@]13CCN(CC4CC4)[C@H](C2)[C@]12CC[C@@](N(C)C)(CO2)C3 [Compound 28, (4bR,6S,8aS,9R)-11-(cyclopropylmethyl)-3-methoxy-N,N-dimethyl-5,6,7,8,9,10-hexahydro-9,4b-(epiminoethano)-8a,6-(epoxymethano)phenanthren-6-amine]										18.8 ± 1.46	68.7 ± 0.67	107 ± 2.4	1.92 ± 0.693	339 ± 31.6	132 ± 25.7
COc1ccc2c(c1)[C@]13CCN(CC4CC4)[C@H](C2)[C@]12CC[C@@](Nc1ccc(C(C)(C)C)cc1)(CO2)C3 [Compound 29, (4bR,6S,8aS,9R)—N-(4-tert-butyl)phenyl-11-(cyclopropylmethyl)-3-methoxy-5,6,7,8,9,10-hexahydro-9,4b-(epiminoethano)-8a,6-(epoxymethano)phenanthren-6-amine]										7.5 ± 1.55	43.3 ± 2.4	113 ± 4.41	> 20	2.02 ± 0.28	3.08 ± 0.32
COc1ccc2c(c1)[C@]13CCN(CC4CC4)[C@H](C2)[C@]12CC[C@@](Nc1ccccc1)(CO2)C3 [Compound 30, (4bR,6S,8aS,9R)-11-(cyclopropylmethyl)-3-methoxy-N-phenyl-5,6,7,8,9,10-hexahydro-9,4b-(epiminoethano)-8a,6-(epoxymethano)phenanthren-6-amine]										20.3 ± 0.67	69 ± 2.65	105 ± 3.53	0.0836 ± 0.0234	9.93 ± 0.87	0.14 ± 0.039
